From US9962453B2, “Immunogenic compound” (ALTIMMUNE UK LIMITED, priority 2013, dated 2018)
Marks after values point to notes of the source that are not given here.

Experiment: Particle size measurement (dynamic light scattering) and visual solubility in aqueous solutions; as to particle size, HIST/NaCl: unit not given here; as to particle size, HIST: unit not given here; as to particle size, NaCl: unit not given here; as to particle size, PBS: unit not given here; as to particle size, Water: unit not given here
Settings: for particle size, HIST: 2 mg net mass/ml in 28 mM L-Histidine buffer, pH 5.9 to 6.4; for particle size, HIST/NaCl: 2 mg net mass/ml in 0.9% sodium chloride in 28 mM L-histidine, pH 5.9 to 6.3; for particle size, NaCl: 2 mg net mass/ml in 0.9% sodium chloride, pH 3.3 to 4.2; for particle size, PBS: 2 mg net mass/ml in 1× PBS, pH 6.9 to 7.5; for particle size, Water: 2 mg net mass/ml in water, pH 3.1 to 4.1, 20 °C; for behaviour in the particle size assay: water, HIST, NaCl versus HIST/NaCl, PBS

Substance	particle size, HIST	particle size, HIST/NaCl	particle size, NaCl	particle size, PBS	particle size, Water	behaviour in the particle size assay
Ac-RRLLAAHLALHAALLRRL-NH2 [Peptide 15, Ac-RRLLAAHLALHAALLRRL-NH2]	0*	2.66*	0*	360.7*	0*	–
Ac-RRLLKAKLALKAKLLRRL-NH2 [Peptide 18, Ac-RRLLKAKLALKAKLLRRL-NH2]	0*	0*	0*	0*	0*	–
Ac-RRLLPAHLALHAPLLRRL-NH2 [Peptide 14, Ac-RRLLPAHLALHAPLLRRL-NH2]	0*	0*	0*	1.5*	0*	–
Ac-RRLLPALLALLAPLLRRL-NH2 [Peptide 3, Ac-RRLLPALLALLAPLLRRL-NH2]	0*	0*	0*	3.37*	0*	–
Ac-RRLLAAPLALPAALLRRL-NH2 [Peptide 5, Ac-RRLLAAPLALPAALLRRL-NH2]	0*	3.3*	1.6*	1.35*	0*	–
Ac-RRLLLAPLALPALLLRRL-NH2 [Peptide 4, Ac-RRLLLAPLALPALLLRRL-NH2]	0*	0*	0*	2.38*	0*	–
Ac-RRLLPAPLALPAPLLRRL-NH2 [Peptide 1, Ac-RRLLPAPLALPAPLLRRL-NH2]	0*	0.87*	0*	2.39*	0*	–
Ac-RRLLHAHLALHAHLLRRL-NH2 [Peptide 16, Ac-RRLLHAHLALHAHLLRRL-NH2]	0*	1.83*	0*	1.4*	0*	apparent solubility in water, 28 mM L-Histidine and 0.9% NaCl with the formation of larger particles or insoluble aggregates in 28 mM L-Histidine/NaCl or PBS
Ac-RRLLHAKLALKAHLLRRL-NH2 [Peptide 17, Ac-RRLLHAKLALKAHLLRRL-NH2]	0*	0*	0*	0*	0*	–
Ac-LRLLAAHLALHAALLRLL-NH2 [Peptide 10, Ac-LRLLAAHLALHAALLRLL-NH2]	INS.	INS.	INS.	INS.	INS.	–
H-K(Ac)RRLLHAHLALHAHLLRRLK(Ac)-NH2 [Peptide 16′, K(Ac)RRLLHAHLALHAHLLRRLK(Ac)-NH2]	0*	2.3*	0*	2.9*	0*	apparent solubility in water, 28 mM L-Histidine and 0.9% NaCl with the formation of larger particles or insoluble aggregates in 28 mM L-Histidine/NaCl or PBS
Ac-RRLLPAALALAAPLLRRL-NH2 [Peptide 2, Ac-RRLLPAALALAAPLLRRL-NH2]	0*	0*	0*	4.52*	0*	–
Ac-RRLLHAPLALPAHLLRRL-NH2 [Peptide 12, Ac-RRLLHAPLALPAHLLRRL-NH2]	0*	0*	0*	1.35*	0*	–
Ac-RRLLHALLALLAHLLRRL-NH2 [Peptide 11, Ac-RRLLHALLALLAHLLRRL-NH2]	0*	INS.	0*	INS.	0*	–
Ac-RRLLHAALALAAHLLRRL-NH2 [Peptide 13, Ac-RRLLHAALALAAHLLRRL-NH2]	0*	2.7*	2.2*	2.3*	0*	–
Ac-RRLKKAKLKLKAKKLRRL-NH2 [Peptide 19, Ac-RRLKKAKLKLKAKKLRRL-NH2]	0*	0*	0*	0*	0*	–
Ac-LRLLHALLALLAHLLRLL-NH2 [Peptide 6, Ac-LRLLHALLALLAHLLRLL-NH2]	INS.	INS.	INS.	INS.	INS.	–
Ac-LRLLPAHLALHAPLLRLL-NH2 [Peptide 9, Ac-LRLLPAHLALHAPLLRLL-NH2]	0*	INS.	6.02*	INS.	0*	–
Ac-LRLLHAPLALPAHLLRLL-NH2 [Peptide 7, Ac-LRLLHAPLALPAHLLRLL-NH2]	0*	INS.	0*	INS.	0*	–
Ac-LRLLHAALALAAHLLRLL-NH2 [Peptide 8, Ac-LRLLHAALALAAHLLRLL-NH2]	INS.	INS.	INS.	INS.	INS.	–
